The values below are quoted from earlier work in paper PMC5548886 (Cancer Medicine, 2017).

The test system of data set [1] is advanced or metastatic melanoma. The conditions noted are these: phase II trial; cited from earlier work.
A further data set concerns pERK. More on the design: method as in PMID 20823850. The conditions noted are these: at the recommended phase II dose; cited from earlier work.

Turning to `CNC(=O)c1ccccc1Sc1ccc2c(/C=C/c3ccccn3)n[nH]c2c1` [axitinib], in data set [1], the response rate is ~ 19%.

On to `CCCS(=O)(=O)Nc1ccc(F)c(C(=O)c2c[nH]c3ncc(-c4ccc(Cl)cc4)cc23)c1F` [vemurafenib], for which the pERK suppression result with pERK was “over 80%”.
